In this assay the target is T1, EGFR (Homo sapiens, UniProt P00533).
T1 construct: Add 7 ug A431 cell lysate per well (EGFR source); endogenous in cells; host or cells: A431
T1 sequence (P00533 25-1210): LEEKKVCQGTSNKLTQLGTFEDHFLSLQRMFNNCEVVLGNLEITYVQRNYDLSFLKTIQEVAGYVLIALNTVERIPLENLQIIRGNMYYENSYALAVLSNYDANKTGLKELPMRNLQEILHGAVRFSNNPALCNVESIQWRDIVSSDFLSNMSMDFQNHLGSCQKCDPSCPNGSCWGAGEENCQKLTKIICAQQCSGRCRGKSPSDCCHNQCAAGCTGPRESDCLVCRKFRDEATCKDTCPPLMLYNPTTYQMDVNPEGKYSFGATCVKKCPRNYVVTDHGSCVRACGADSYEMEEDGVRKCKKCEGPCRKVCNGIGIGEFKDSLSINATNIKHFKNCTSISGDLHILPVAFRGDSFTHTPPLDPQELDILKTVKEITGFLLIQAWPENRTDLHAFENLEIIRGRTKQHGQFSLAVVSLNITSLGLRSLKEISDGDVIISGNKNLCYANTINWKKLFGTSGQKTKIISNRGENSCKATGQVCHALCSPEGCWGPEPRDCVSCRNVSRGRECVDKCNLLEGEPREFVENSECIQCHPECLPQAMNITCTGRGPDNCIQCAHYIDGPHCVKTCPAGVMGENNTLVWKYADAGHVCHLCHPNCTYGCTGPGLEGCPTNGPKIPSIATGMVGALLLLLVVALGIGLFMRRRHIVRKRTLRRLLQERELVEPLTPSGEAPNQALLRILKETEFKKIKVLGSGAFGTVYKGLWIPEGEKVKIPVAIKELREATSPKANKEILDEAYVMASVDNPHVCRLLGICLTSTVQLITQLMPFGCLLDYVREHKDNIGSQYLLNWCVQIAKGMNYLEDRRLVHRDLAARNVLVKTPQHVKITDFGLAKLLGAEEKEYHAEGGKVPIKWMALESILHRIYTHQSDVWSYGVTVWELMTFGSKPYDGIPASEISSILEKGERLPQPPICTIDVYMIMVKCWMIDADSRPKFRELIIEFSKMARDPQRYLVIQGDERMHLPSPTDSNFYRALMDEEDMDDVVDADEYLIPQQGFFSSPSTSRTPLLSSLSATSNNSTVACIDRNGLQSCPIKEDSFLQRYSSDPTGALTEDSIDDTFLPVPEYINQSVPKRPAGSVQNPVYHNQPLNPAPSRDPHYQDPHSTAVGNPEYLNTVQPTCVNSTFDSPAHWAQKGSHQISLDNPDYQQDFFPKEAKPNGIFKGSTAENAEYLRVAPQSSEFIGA
Briefly: EGFR ELISA assay (in vitro kinase activity, EGFR captured from A431 cell lysate). The format is biochemical. More on the design: concentration or dose not given beside the values. Summed up: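 Receptor autophosphorylation was read by ELISA: anti-phosphotyrosine serum and an HRP-linked secondary with ABTS substrate, absorbance at 410 nm (reference 630 nm). The reaction ran 5 min with 3 µM ATP and 5 mM MnCl2 and was quenched by 20 mM EDTA. Compounds were first incubated 30 min with antibody-captured EGFR from A431 cell lysate.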
With `O=C1Nc2ccc(I)cc2C1=Cc1coc2c(Br)cc(Br)cc2c1=O` [10730/B09], the “Biochem EGFR %Inhibition” value is given as 14.2%.

Take `O=C1Nc2c(Br)cc(Br)cc2C1=Cc1ccc(-c2ccccc2Cl)o1` [10730/A07]: the “Biochem EGFR %Inhibition” value worked out at 10.4%.

In the case of `O=C1Nc2ccc(S(=O)(=O)Nc3ccc(C(F)(F)F)cc3)cc2C1=Cc1ccc(N2CCCC2)cc1` [10729/E10], the “Biochem EGFR %Inhibition” value was determined as 50.3%.

Take `O=C1Nc2ccc(CCCl)cc2C1=Cc1cccc(Oc2ccccc2)c1` [10729/G06]: the “Biochem EGFR %Inhibition” value was 15.2%.

In the case of `Cc1c(O)ccc(C=C2C(=O)Nc3ccc(I)cc32)c1O` [10718/B09], the “Biochem EGFR %Inhibition” value was -0.8%.

On to `O=C1Nc2ccc(S(=O)(=O)Nc3ccc(C(F)(F)F)cc3)cc2C1=Cc1ccncc1` [10729/E09], for which the “Biochem EGFR %Inhibition” value stood at 29.6%.

For `O=C1Nc2ccc(CCCl)cc2C1=Cc1ccncc1` [10729/G09], the “Biochem EGFR %Inhibition” value was determined as 20.8%.

Consider `O=C1Nc2ccc(CCCl)cc2C1=Cc1ccc(N2CCCC2)cc1` [10729/G10], for which the “Biochem EGFR %Inhibition” value was 60.1%.

On to `CNS(=O)(=O)c1ccc2c(c1)C(=Cc1cc(OC)c(OC)cc1OC)C(=O)N2` [10730/D03], for which the “Biochem EGFR %Inhibition” value is reported as 9.9%.

As for `Cc1c(Br)ccc2c1C(=Cc1ccc3ccccc3c1O)C(=O)N2` [10718/C04], the “Biochem EGFR %Inhibition” value stood at 14.8%.

On to `Cc1c(Br)ccc2c1C(=Cc1cc3ccccc3nc1Cl)C(=O)N2` [10730/C08], for which the “Biochem EGFR %Inhibition” value came out at 24.3%.

Turning to `CNS(=O)(=O)c1ccc2c(c1)C(=CC1CC(OC)OC1OC)C(=O)N2` (stereo not shown) [10730/D10], the “Biochem EGFR %Inhibition” value is reported as 16.7%.

Consider `COc1cc(OC)c(OC)cc1C=C1C(=O)Nc2ccc(I)cc21` [10730/B03], for which the “Biochem EGFR %Inhibition” value was determined as 46.8%.

For the compound `O=C1Nc2ccc(S(=O)(=O)Nc3ccc(C(F)(F)F)cc3)cc2C1=Cc1coc2ccc(Cl)cc2c1=O` [10730/E06], the “Biochem EGFR %Inhibition” value turned out to be 1.5%.

`Cc1cc(C=C2C(=O)Nc3c(Br)cc(Br)cc32)oc1C` [10730/A11]: the “Biochem EGFR %Inhibition” value is on record as 56.4%.

Consider `COc1cc(Br)c(O)c(C=C2C(=O)Nc3ccc(Br)c(C)c32)c1` [10718/C03], for which the “Biochem EGFR %Inhibition” value was 41.3%.

As for `O=C1Nc2ccc(S(=O)(=O)Nc3ccc(C(F)(F)F)cc3)cc2C1=Cc1cccnc1` [10729/E08], the “Biochem EGFR %Inhibition” value is listed as 40.1%.

In the case of `O=C1Nc2ccc(CCCl)cc2C1=Cc1cccnc1` [10729/G08], the “Biochem EGFR %Inhibition” value is 6.0%.

On to `COc1ccc(C=C2C(=O)Nc3c(Br)cc(Br)cc32)c(OC)c1OC` [10730/A02], for which the “Biochem EGFR %Inhibition” value came to 27.5%.

Consider `CC(=O)n1cc(C=C2C(=O)Nc3c(Br)cc(Br)cc32)c2ccccc21` [10730/A05], for which the “Biochem EGFR %Inhibition” value is reported as 18.6%.

Take `COc1cc(OC)c(OC)cc1C=C1C(=O)Nc2ccc(Br)c(C)c21` [10730/C03]: the “Biochem EGFR %Inhibition” value is reported as -12.1%.

For the compound `O=C1Nc2ccc(I)cc2C1=Cc1cc2ccccc2nc1Cl` [10730/B08], the “Biochem EGFR %Inhibition” value came to 48.4%.

Regarding `CSc1ccc(C=C2C(=O)Nc3ccc(CCCl)cc32)cc1` [10729/G04], the “Biochem EGFR %Inhibition” value is listed as 52.9%.

Turning to `O=C1Nc2ccc(CCCl)cc2C1=Cc1ccccn1` [10729/G07], the “Biochem EGFR %Inhibition” value is -0.8%.

As to `Cc1cc(C=C2C(=O)Nc3ccc(Br)c(C)c32)oc1C` [10730/C11], the “Biochem EGFR %Inhibition” value came out at 38.4%.

As to `Cc1cc(C=C2C(=O)Nc3ccc(S(=O)(=O)Nc4ccc(C(F)(F)F)cc4)cc32)oc1C` [10730/E11], the “Biochem EGFR %Inhibition” value stood at 19.1%.

In the case of `O=C1Nc2ccc(S(=O)(=O)Nc3ccc(C(F)(F)F)cc3)cc2C1=Cc1coc2c(Br)cc(Br)cc2c1=O` [10730/E09], the “Biochem EGFR %Inhibition” value is recorded as 21.7%.

Take `O=C1Nc2ccc(S(=O)(=O)Nc3ccc(C(F)(F)F)cc3)cc2C1=Cc1cc2ccccc2nc1Cl` [10730/E08]: the “Biochem EGFR %Inhibition” value worked out at 6.2%.

As to `COc1cc(C=C2C(=O)Nc3ccc(I)cc32)cc(OC)c1OC` [10730/B04], the “Biochem EGFR %Inhibition” value was 36.5%.

For the compound `COc1cc(OC)c(OC)cc1C=C1C(=O)Nc2c(Br)cc(Br)cc21` [10730/A03], the “Biochem EGFR %Inhibition” value is given as 34.4%.

As for `COC1CC(C=C2C(=O)Nc3ccc(I)cc32)C(OC)O1` (stereo not shown) [10730/B10], the “Biochem EGFR %Inhibition” value was 15.8%.

In the case of `O=C1Nc2ccc(S(=O)(=O)Nc3ccc(C(F)(F)F)cc3)cc2C1=Cc1ccc(-c2ccccc2Cl)o1` [10730/E07], the “Biochem EGFR %Inhibition” value was 18.8%.

`COc1ccc2ccccc2c1C=C1C(=O)Nc2ccc(CCCl)cc21` [10729/G02]: the “Biochem EGFR %Inhibition” value is -4.8%.

Regarding `O=C1Nc2c(Br)cc(Br)cc2C1=Cc1ccc(Br)cc1` [10717/A08], the “Biochem EGFR %Inhibition” value came out at 39.1%.

For `CNS(=O)(=O)c1ccc2c(c1)C(=Cc1ccc(-c3ccccc3Cl)o1)C(=O)N2` [10730/D07], the “Biochem EGFR %Inhibition” value amounted to 43.0%.

Turning to `CC(=O)n1cc(C=C2C(=O)Nc3ccc(S(=O)(=O)N4CCOCC4)cc32)c2ccccc21` [10730/F05], the “Biochem EGFR %Inhibition” value is reported as -16.3%.

As for `CNS(=O)(=O)c1ccc2c(c1)C(=Cc1cn(C(C)=O)c3ccccc13)C(=O)N2` [10730/D05], the “Biochem EGFR %Inhibition” value was 12.6%.

For `O=C1Nc2ccc(S(=O)(=O)N3CCOCC3)cc2C1=Cc1cc2ccccc2nc1Cl` [10730/F08], the “Biochem EGFR %Inhibition” value is 0.8%.

`COC(=O)c1[nH]c(C)c(C=C2C(=O)Nc3ccc(I)cc32)c1C(=O)OC` [10718/B07]: the “Biochem EGFR %Inhibition” value stood at 9.9%.

Consider `CNS(=O)(=O)c1ccc2c(c1)C(=Cc1ccc(OC)c(OC)c1OC)C(=O)N2` [10730/D02], for which the “Biochem EGFR %Inhibition” value came out at 18.6%.

With `CC(=O)n1cc(C=C2C(=O)Nc3ccc(Br)c(C)c32)c2ccccc21` [10730/C05], the “Biochem EGFR %Inhibition” value is reported as -9.8%.

For `COc1ccc(C=C2C(=O)Nc3ccc(S(=O)(=O)N4CCOCC4)cc32)c(OC)c1OC` [10730/F02], the “Biochem EGFR %Inhibition” value was 2.9%.

In the case of `COc1ccc(C=C2C(=O)Nc3ccc(CCCl)cc32)c2ccccc12` [10729/G03], the “Biochem EGFR %Inhibition” value was determined as 14.6%.

On to `COc1ccc(C=C2C(=O)Nc3ccc(S(=O)(=O)Nc4ccc(C(F)(F)F)cc4)cc32)c(OC)c1OC` [10730/E02], for which the “Biochem EGFR %Inhibition” value is 17.7%.

Regarding `O=C1Nc2c(Br)cc(Br)cc2C1=Cc1coc2ccc(Cl)cc2c1=O` [10730/A06], the “Biochem EGFR %Inhibition” value stood at 6.7%.

With `O=C1Nc2c(Br)cc(Br)cc2C1=Cc1cc2ccccc2nc1Cl` [10730/A08], the “Biochem EGFR %Inhibition” value came out at 10.4%.

With `CNS(=O)(=O)c1ccc2c(c1)C(=Cc1coc3c(Br)cc(Br)cc3c1=O)C(=O)N2` [10730/D09], the “Biochem EGFR %Inhibition” value was determined as 45.1%.

`COc1cc(C=C2C(=O)Nc3ccc(S(=O)(=O)Nc4ccc(C(F)(F)F)cc4)cc32)cc(OC)c1OC` [10730/E04]: the “Biochem EGFR %Inhibition” value is 13.5%.

Turning to `O=C1Nc2ccc(I)cc2C1=Cc1ccc(-c2ccccc2Cl)o1` [10730/B07], the “Biochem EGFR %Inhibition” value came to 57.1%.

With `O=C1Nc2ccc(S(=O)(=O)Nc3ccc(C(F)(F)F)cc3)cc2C1=CC1C=CCCC1` (stereo not shown) [10729/E11], the “Biochem EGFR %Inhibition” value stood at 25.7%.

In the case of `COC1CC(C=C2C(=O)Nc3ccc(S(=O)(=O)Nc4ccc(C(F)(F)F)cc4)cc32)C(OC)O1` (stereo not shown) [10730/E10], the “Biochem EGFR %Inhibition” value is recorded as 9.3%.

Take `COc1cc(OC)c(OC)cc1C=C1C(=O)Nc2ccc(S(=O)(=O)N3CCOCC3)cc21` [10730/F03]: the “Biochem EGFR %Inhibition” value came to 10.4%.

For the origin of these results see patent EP1247803A2, “Indolinone compounds suitable for modulation of protein kinases” (Sugen, Inc., priority 1996, dated 1998).
